From patent publication US9714245B2, “Carboline compounds usable in the treatment of neurodegenerative diseases” (ALZPROTECT, priority 2013, dated 2017)

Assays:
sAPPα = experiment: Soluble APPα quantification (ELISA); type: cell-based, Human; conditions: 24 h, control considered as 100
Method: Soluble APPα Quantification
Human neuroblastoma cell line SKNSH-SYSY APP′ was cultured in Dulbecco's modified Eagle medium (Invitrogen) supplemented with 10% fetal calf serum (PAA), 2 mM L-glutamine (Invitrogen), 1 mM non-essential amino acids (Invitrogen), 50 units/ml penicillin/streptomycin (Invitrogen), and 200 μg G418=geneticin (Invitrogen) (selection for cell expressing APP) in a 5% CO2 humidified incubator at 37° C. Cells were counted and seed at 400000 cells/well into a 12-wells plate for 24 h. The day after, cells were treated with 700 μL/well of drug at 0.3; 1; 3 and 10 μM and incubated for 24 h in a 5% CO2 incubator at 37° C. After treatment, culture medium samples were collected and stored at −80° C. until analysis. Samples corresponding to the 1 and 10 μM treatment were centrifuged 1500 rpm for 5 min at 4° C. sAPPα quantification by ELISA was done with Human sAPPα Assay Kit-IBL (Cat#27734) in accordance with manufacturer's protocol. Samples were diluted at 1:150 in the diluent buffer provided in the kit. Each sample was loaded in duplicate onto the 96 well-plate. Results are expressed in ng/ml and then compared to control conditions (considered as 100 in arbitrary units) and are presented for two concentrations of the drug: 1 and 10 μM.

CTFα = experiment: In vivo acute treatment, CTFα in brain tissue; design: species or system C57Bl6 mice; conditions: acute p.o. 24 h
Method: Female C57Bl6 mice of 4 month-old were treated p.o. (gavage) with either vehicle (control) or drug at 3; 6; 12.5 and 25 mg/kg (n=6 per group) for 24 h. The product was administered with a disposable Rodent Feeding Tube ECIMED Ref#V0104030 (4 mm×30 mm). After 24 h, mice were sacrificed and their troncal blood was collected and stored at 4° C. Brains were immediately removed to dissect the Frontal Cortex, the Cortex around the Hippocampus and the Hippocampus. These areas were stored at −80° C. until use. Blood was then centrifuged at 2100×g for 5 min. Resulting plasma was used to quantify the circulating drug and brain tissues were used for biochemical determinations (PFC: prefrontal cortex and HIP: hippocampus).

[1] = Cytotoxicity evaluation (MTS assay); type: cell-based, Human; conditions: human, SY5Y-APPWT neuroblastoma cells (expressing APP); SY5Y-APPWT cells, 24 h treatment, MTS
Method: Human neuroblastoma cell line SY5Y-APP^WT was used to assess the cytotoxic effects of each compound. SY5Y-APP^WT cells were seeded at 20000 cells/well onto 96-well plates and were cultured in Dulbecco's modified Eagle medium (DMEM, Invitrogen) supplemented with 10% fetal calf serum (PAA), 2 mM L-glutamine (Invitrogen), 1 mM non-essential amino acids (Invitrogen), 50 units/ml penicillin/streptomycin (Invitrogen), and 200 μg G418=geneticin (Invitrogen) (selection for cells expressing APP) in a 5% CO2 humidified incubator at 37° C. After 24 h, the cells were washed and incubated with the compound at 0.1; 0.3; 1; 3; 10; 30 and 100 μM or with DMSO as control diluted in the same culture medium at 37° C. in 5% CO2. After 24 h of treatment, cytotoxicity was determined by using colorimetric MTS assay (CellTiter 96® Aqueous One Solution Cell Proliferation Assay-MTS Promega) according to the protocol of the manufacturer. Absorbance was read at 490 nm and results were expressed as % from control condition considered as 100%.

[2] = target: T1, HIS-tagged valosin-containing protein/p97 (VCP/p97) (Homo sapiens, UniProt P55072); experiment: VCP interaction assay (competition with biotinylated probe 4.7); type: binding; conditions: compound 60 μM against biotinylated probe 4.7 20 μM
T1 construct: purchased TebuBio
Method: Physical interaction between HIS-tagged valosin-containing protein/p97 (VCP/p97) (TebuBio) and biotinylated probe 4.7 was investigated by Enzyme-Linked Assay (ELA) based on HIS-Select® High Sensitivity Nickel coated plates, used following manufacturer's recommendations (Sigma Aldrich). Other chemical compounds were tested in competition with the biotinylated probe 4.7 in this system. Briefly, nickel beads were incubated overnight at 4° C. with 2% casein blocking solution. After a three-time rinse with wash buffer (0.05% Tween20 in phosphate buffer saline), HIS-tagged VCP/p97 protein (5 μg/ml in PBS) was incubated with nickel beads for 90 min at 25° C. Then, the plate was washed three times. Chemical compounds (60 μM) were incubated 10 min at 25° C. before addition of biotinylated probe 4.7 (20 μM) 30 min at 25° C. After five washes, streptavidin-peroxidase (2 μg/ml) was added during 1 h at 25° C., followed by the peroxidase substrate addition 30 min at RT. Reaction was stopped with 0.5M H2SO4 solution and the optical density was read at 450 nm using a microplate reader (VICTOR X4 Wallac, 2030-0040, PerkinElmer). Competition efficiency was quantified by the loss of signal compared to the control condition.

secreted Aβ1-40 = experiment: Aβ1-40 secretion by APP-transfected neuroblastoma cells (ELISA); type: cell-based; conditions: Homo sapiens, Neuroblastoma cell; SKNSH-SYSY APPWT cells; concentration decreasing secreted Aβ1-40 to 50% of basal amount
Method: Cell Cultures and Transfections to Test Activity on Aβ1-40 and Aβ1-42 Secretion
Human neuroblastoma cell line SKNSH-SYSY (ATCC® Catalog No. CRL-2266™), HEK (ATCC® CRL-1573™) and COS-1 (ATCC® CRL-1650™) cells were maintained in Dulbecco's modified Eagle medium (DMEM, GIBCO BRL) supplemented with 10% fetal calf serum, 2 mM L-glutamine, 1 mM non-essential amino acids, 50 units/ml penicillin/streptomycin (Invitrogen, France) in a 5% CO2 humidified incubator at 37° C. APP695 cDNA was subcloned into eukaryotic expression vector pcDNA3 (Invitrogen), allowing for a G418 (Invitrogen) selection of clones. This APP cDNA coding for the 695 amino acid long isoform was transfected into SKNSH-SYSY cells using the ethyleneimine polymer ExGen 500 (Euromedex) according to the manufacturer's instructions. The cells expressing APP (SKNSH-SYSY APP^WT) were selected by the addition of 200 μg/ml G418 in the cell medium. To quantify AR which released in the cell culture medium, the collected medium was spun at 200×g to eliminate the cell debris. The concentrations of secreted Aâ1-40 and Aβ1-42 were determined using the Human Aβ (1-40) Assay Kit (IBL) or the INNOTEST™ beta-Amyloid (1-42) ELISA Kit (Innogenetics), according to manufacturer's instructions. The results were expressed as IC50, i.e. the concentration able to decrease to 50% the basal amount of secreted Aβ peptide 1-40 and 1-42.

T1 sequence (P55072 whole entry): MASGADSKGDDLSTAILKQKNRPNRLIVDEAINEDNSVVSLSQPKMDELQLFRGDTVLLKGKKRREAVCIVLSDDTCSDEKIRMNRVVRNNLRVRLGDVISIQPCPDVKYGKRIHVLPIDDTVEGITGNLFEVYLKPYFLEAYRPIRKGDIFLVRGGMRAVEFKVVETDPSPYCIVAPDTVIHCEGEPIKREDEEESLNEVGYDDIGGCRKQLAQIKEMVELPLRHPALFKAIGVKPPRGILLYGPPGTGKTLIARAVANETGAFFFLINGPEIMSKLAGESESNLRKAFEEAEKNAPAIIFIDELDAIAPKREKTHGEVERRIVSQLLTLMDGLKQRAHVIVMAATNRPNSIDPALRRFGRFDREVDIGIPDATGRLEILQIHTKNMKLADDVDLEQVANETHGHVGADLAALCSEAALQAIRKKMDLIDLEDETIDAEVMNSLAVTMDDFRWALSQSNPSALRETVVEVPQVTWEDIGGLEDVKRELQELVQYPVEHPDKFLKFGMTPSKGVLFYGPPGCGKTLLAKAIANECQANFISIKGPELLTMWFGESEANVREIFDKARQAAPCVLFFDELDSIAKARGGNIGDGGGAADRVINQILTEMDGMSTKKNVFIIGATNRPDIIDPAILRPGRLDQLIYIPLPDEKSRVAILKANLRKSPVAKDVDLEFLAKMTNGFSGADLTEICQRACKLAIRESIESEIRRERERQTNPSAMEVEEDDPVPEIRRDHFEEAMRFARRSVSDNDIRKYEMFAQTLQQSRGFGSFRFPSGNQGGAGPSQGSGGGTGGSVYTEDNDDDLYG

VCP (competition efficiency, loss of signal compared to the control) [2]: 96%
IC50 (secreted Aβ1-40): 1.2 µM
SMILES: CC(C)CN(CCCN1CCN(CCCN2CCc3[nH]c4ccc(F)cc4c3C2)CC1)CC(C)C [Compound 3.1d, N,N-diisobutyl-3-(4-(3-(8-fluoro-1,3,4,5-tetrahydro-1H-pyrido[4,3-b]indol-2-yl)propyl)piperazin-1-yl)propylamine]
sAPPα (10 μM) (sAPPα): 166 arbitrary units
HIP CTFα (6-12.5 mg/kg), first line (CTFα; hippocampus, 6 mg/kg (first of the two doses in the head)): 110
HIP CTFα (6-12.5 mg/kg), second line (CTFα; hippocampus, 12.5 mg/kg (second of the two doses in the head)): 115
PFC CTFα (6-12.5 mg/kg), first line (CTFα; prefrontal cortex, 6 mg/kg (first of the two doses in the head)): 90
PFC CTFα (6-12.5 mg/kg), second line (CTFα; prefrontal cortex, 12.5 mg/kg (second of the two doses in the head)): 90
CC50 at 24 h [1]: 15 µM
